Test [1] has as its system lens samples obtained from rat. In words: Activity for preventing the lens opacity (UV-irradiated cultured lens). The test is classed as cell-based, rat (Wistar strain, male, 6-10 week age). Particulars: 1 h, read-out: Rate of the activity for preventing lens opacity. On the procedure:
The lens samples obtained from rat (Wistar strain, male, 6-10 week age) were placed on 24-well plate, and were cultured in DEMEM (Dulbecco's modified Eagle's medium manufactured by Nissui Pharmaceutical Co., Ltd.) at 37° C. overnight, a 5% CO2 environment was used. Under dissecting microscope observation, the lens samples having transparency were only selected to use the test. Thus selected lens samples were transferred to midium (1 ml) in which the test compound was dissolved. (As to the reference test, the medium without containing the test compound was used.) The ultraviolet rays in the intensity of 8.8 mW/cm^2 was irradiated for 60 minutes by using a fluorescent lamp (TOSHIBA FL-20SE) to the lens samples. After the irradiation, the medium was replaced to new medium containing the test compound and further cultured overnight. The medium without the test compound was replaced everyday during 3 days. By using a dissecting microscope, opacity of the lens samples were observed. The degrees of opacity of the lens samples was determined by deviding the field of vision into 8 fields as follows: Score 0: transparent; Score 1: some loss of transparency; and Score 2: completely opaque. Rate of activity for preventing the lens opacity was calculated from the following formula: [formula]

Test [2] concerns skin homogenate of guinea pig. In words: Activity for inhibiting the formation of lipid peroxides (ultraviolet-B irradiated skin homogenate, TBA method). It counts as biochemical, albino guinea pig (Hartley strain, female). As to conditions: test compound 10^-4 M; UV 9.5 mW/cm^2, 60 minutes.
Experimental: The activity for inhibiting the formation of lipid peroxides which are increasingly formed by exposed to the ultraviolet-B radiation to the skin homogenate of guinea pig was determined by a procedure of thiobarbituric acid method (TBA method).
The activity for inhibiting the formation of lipid peroxides can be evaluated by degree of decreasing the optical absorbance of the condensate of thus formed malondialdehyde with thiobarbituric acid, by adding a test sample of the cyclic amide derivative of the present invention to the homogenate.
That is, the hairs covering in the back of an albino guinea pig (Hartley strain, female) were clipped by using an electric hair clippers under anesthesia. After the enucleation of the hair clipped portion of the skin, the subcutaneous tissue of this skin was removed in cold physiological saline. Distilled water in an amount of 9 times by weight of the skin tissue was added to this skin subcutaneous tissue, then was subjected to homogenation and centrifugation (600 g, for 5 minutes) to obtain the supernatant liquid. 5 Microliters each of test sample solutions of various concentrations was added to 0.5 ml each of the supernatant liquid, then the ultraviolet ray in the intensity of 9.5 mW/cm^2 was irradiated for 60 minutes by using fluorescent lamps (TOSHIBA FL-20SE, manufactured by Toshiba Corporation) as a light source. As to the reference sample solution, the solvent for dissolution of the test compound was used in place of the test sample solution. After ultraviolet radiation, the amount of lipid peroxide being formed in the sample solution (TBA value) was measured by TBA method (cf. Analytical Biochemistry, 1979, Vol. 95, pp. 351-358), and the inhibition rate of lipid peroxide formation shown by the test sample was calculated by the following formula: [formula]
The subject of another test is skin erythema. In words: Activity for inhibiting skin erythema caused by ultraviolet radiation. It counts as in vivo, albino guinea pig (Hartley strain, female, 7-8 week age). As to conditions: for inhibition in vivo at 3 %: Cavia porcellus, UV 1.3-1.5 mW/cm^2 for 30 minutes, measured 24 hours later. How it is done: The hairs covering in the back of albino guinea pig (Hartley strain, female, 7-8 week age) were shaved by using an electric hair clippers and a shaver. In the next day, the guinea pig was fixed in Bowlman's cage, then a light shield tape (adhesive plaster for patch test), having 4 round holes of 1.5 cm in diameter was adhered on the hair clipped portion so as to provide 4 sites (round holes) to be exposed to the ultraviolet rays. […] Each one of the test sample solutions was prepared by dissolving each test compounds in three kinds of concentrations within 0.1 to 10%, and applied.

The mark [3] stands for this setting: test compound 1 x 10^-4 M, UV 8.8 mW/cm^2, 60 minutes.
The mark [4] stands for this setting: 3% concentration of test compound, 10 μl topical, read-out: Rate of activity for inhibiting the skin erythema.

The values that follow come from US5786367A, “Cyclic amide derivatives” (Otsuka Pharmaceutical Co., Ltd., priority 1994, dated 1998).

Structures are written as SMILES. Where two headings read alike, the source gives them in different places.

In the case of `C=CCc1cc2c(c(CC=C)c1O)CCC(=O)N2CC(C)C` [Example 41], the inhibition at 100 µM in test [1] (setting [3]) is 55%. For the same molecule, the “Inhibition rate of lipid peroxide formation” value in test [2] was 96%. Moreover, the inhibition in vivo at 3 % in the test with skin erythema (setting [4]) was 57%. In addition, the “50% inhibitory concentration (IC50) for inhibiting the skin erythema” value in the test on skin erythema (topical, three concentrations within 0.1 to 10%) came out at 2.0 concentration in %.
With `C=CCc1cc2c(c(CC=C)c1O)CCC(=O)N2CCCN.Cl` [Example 67, 1-(3-aminopropyl)-5,7-diallyl-3,4-dihydro-6-hydroxy-2(1H)-quinolinone hydrochloride], the inhibition at 100 µM in test [1] (setting [3]) is 40%. Also, the “Inhibition rate of lipid peroxide formation” value in test [2] was 75%. The inhibition in vivo at 3 % in the test with skin erythema (setting [4]) turned out to be 31%.
`C=CCc1cc2c(c(CC=C)c1O)CCC(=O)N2CCCCCCCC` [Example 101]: the inhibition at 100 µM in test [1] (setting [3]) is 55%. In addition, the inhibition in vivo at 3 % in the test on skin erythema (setting [4]) came to 37%.
`C=CCc1cc2c(c(CC=C)c1O)CCC(=O)N2CCOC(C)=O` [Example 103, 1-(2-Acetyloxyethyl)-5,7-diallyl-3,4-dihydro-6-hydroxy-2(1H)-quinolinone]: the inhibition at 100 µM in test [1] (setting [3]) came out at 57%.
On the same count and under the same terms, the figure for `C=CCc1cc2c(c(CC=C)c1O)CCC(=O)N2CCO` [Example 109, 5,7-diallyl-3,4-dihydro-6-hydroxy-1-(2-hydroxyethyl)-2(1H)-quinolinone] is 66%.
As to `C=CCc1cc2c(c(CC=C)c1O)CCC(=O)N2C(C)C(=O)O` (stereo not drawn) [Example 115, Sodium 2-(5,7-Diallyl-6-hydroxy-1,2,3,4-tetrahydro-2-oxoquinolin-1-yl)propionate], the inhibition at 100 µM in test [1] is 63%. Besides, in the test with skin erythema (topical, 24 h, read-out: Rate of activity for inhibiting the skin erythema, 3% concentration of test compound, 10 μl topical), the inhibition in vivo at 3 % was 33%.
Take `O=C1O[C@H]([C@@H](O)CO)C(O)=C1O` [Vitamin C, reference compound]: in test [1] (setting [3]), the inhibition at 100 µM was -11%. The inhibition at 1000 µM in test [1] (test compound 10 x 10^-4 M, UV 8.8 mW/cm^2, 60 minutes) amounted to 84%.
